In paper PMC8508660 (2021) one finds ΔTm data, which are given here for one compound.

Test [1] relates to 22HT (DNA, G4) AGGGTTAGGGTTAGGGTTAGGG
In words: CD melting, 290 nm. The conditions noted are these: 100 mM K+; 10 mM cacodylate pH 7.2; 2 µM DNA, 3 equiv. (6 µM) ligand; derived from two Tm (±0.5).

Test [2] relates to c-MYC (DNA, G4) TGAGGGTGGGTAGGGTGGGTAA
Description: CD melting, 265 nm. As to conditions: 10 mM K+, 90 mM Li+; 10 mM cacodylate pH 7.2; 2 µM DNA, 3 equiv. (6 µM) ligand; derived from two Tm (±0.5).

The subject of test [3] is 22HT (DNA, G4) AGGGTTAGGGTTAGGGTTAGGG
In words: CD melting, 295 nm. As to conditions: 100 mM Na+; 10 mM cacodylate pH 7.2; 2 µM DNA, 3 equiv. (6 µM) ligand; derived from two Tm (±0.5).

Test [4] relates to TBA (DNA, aptamer) GGTTGGTGTGGTTGG
Description: CD melting, 295 nm. As to conditions: 100 mM K+; 10 mM cacodylate pH 7.2; 2 µM DNA, 3 equiv. (6 µM) ligand; derived from two Tm (±0.5).

With `COc1nc2c(N)ncnc2[n+]2ccccc12`, the ΔTm (as a rule, the shift of the melting midpoint relative to a reference) was 0.7 °C in test [1], -0.2 °C in test [2], -0.2 °C in test [3] and -0.4 °C in test [4].
